In this assay the target is T1, E1 and His-E2 Ubch10 (Homo sapiens, UniProt P22314).
T1 construct: host or cells: E. coli (His-Ubch10); Sf9 insect cells (E1)
T1 sequence (P22314 1-1058): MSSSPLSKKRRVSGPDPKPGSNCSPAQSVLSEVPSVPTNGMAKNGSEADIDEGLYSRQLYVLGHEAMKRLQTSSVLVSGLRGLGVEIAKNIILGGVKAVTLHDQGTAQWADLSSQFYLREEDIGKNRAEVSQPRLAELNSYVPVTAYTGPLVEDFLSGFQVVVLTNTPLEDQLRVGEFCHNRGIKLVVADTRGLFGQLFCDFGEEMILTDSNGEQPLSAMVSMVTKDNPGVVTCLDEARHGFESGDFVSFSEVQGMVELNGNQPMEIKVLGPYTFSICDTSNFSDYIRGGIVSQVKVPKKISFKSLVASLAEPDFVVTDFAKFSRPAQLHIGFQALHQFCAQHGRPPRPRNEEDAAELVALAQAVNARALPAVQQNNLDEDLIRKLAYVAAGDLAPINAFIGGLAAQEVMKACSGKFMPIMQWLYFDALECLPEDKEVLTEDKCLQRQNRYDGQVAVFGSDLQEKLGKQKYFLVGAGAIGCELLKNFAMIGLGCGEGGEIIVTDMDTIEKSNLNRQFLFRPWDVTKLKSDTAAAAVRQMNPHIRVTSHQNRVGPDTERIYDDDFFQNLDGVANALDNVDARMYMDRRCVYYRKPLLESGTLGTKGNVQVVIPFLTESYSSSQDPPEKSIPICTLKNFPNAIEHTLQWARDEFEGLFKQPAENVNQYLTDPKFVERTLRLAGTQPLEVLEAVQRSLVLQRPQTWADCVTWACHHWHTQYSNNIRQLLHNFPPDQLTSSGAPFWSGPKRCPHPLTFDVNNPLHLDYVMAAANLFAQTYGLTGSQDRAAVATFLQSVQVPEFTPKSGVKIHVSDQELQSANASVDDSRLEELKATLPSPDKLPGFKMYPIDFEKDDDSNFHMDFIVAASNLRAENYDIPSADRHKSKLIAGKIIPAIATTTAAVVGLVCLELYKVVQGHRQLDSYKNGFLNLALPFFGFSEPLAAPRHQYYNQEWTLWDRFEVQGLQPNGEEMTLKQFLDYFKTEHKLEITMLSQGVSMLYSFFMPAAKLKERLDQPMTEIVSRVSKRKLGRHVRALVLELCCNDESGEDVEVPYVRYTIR
As to the kind of experiment: E1 to E2 transfer assay, His-E2 Ubch10, 1.0 μM ATP (low ATP). The class given is biochemical. The settings on record: Table 5, ATP inhibition properties; inhibition measured using IC50 values. The source says:
Biological assays for determining the transfer of ubiquitin from the E1 activating agent to the E2 conjugating agent are described in U.S. patent application Ser. Nos. 09/542,497 and 09/826,312 as well as in the PCT Application WO 01/75145, all of which are incorporated by reference in their entirety. The following assay example illustrates one way by which the ubiquitin ligase inhibitory activity of the compounds of the invention can be assayed. This assay example is not meant to limit in any way the use of the compounds of the invention as ubiquitin ligase inhibitors.
The attachment of a ubiquitin moiety to the E2 conjugating agent was assayed using Flag-ubiquitin that was purified from E. coli, E2 Ubch10 that was purified as a His-Ubch10 from E. coli, and E1 that was purified from Sf9 insect cells (Affiniti Research Products, Exeter, U.K.). The wells of a Nickel-substrate 96-well plate (Pierce Chemical) were blocked with 100 μl of 1% casein/phosphate buffered saline (PBS) for 1 hour at room temperature. The blocked Nickel-substrate plate was then washed three times with 200 μl of PBST (0.1% Tween-20 in PBS). Subsequently, Flag-ubiquitin reaction solution was added to each well so that the final concentration was 62.5 mM Tris pH 7.5, […], 0.75 mM DTT, 1.0 μM ATP (low ATP), and 100 ng Flag-ubiquitin. The final reaction solution volume was fixed to 80 μl with Millipore-filtered water. To this was added the following: a ubiquitin agent inhibitor in 10 μl of DMSO, 10 μl of E1 and His-E2 Ubch10 in 20 mM Tris buffer, pH 7.5, and 5% glycerol so that there was 10 ng/well of E1 and 20 ng/well of His-E2 Ubch10. The reaction was then allowed to proceed at room temperature for 1 hour.
After 1 hour, the wells were washed three times with 200 μl of PBST and the amount of E2-ubiquitin complex was measured. For measuring the amount of the E2-ubiquitin complex, 100 μl of Mouse anti-flag diluted 1:10,000 (Sigma Aldrich Fluka Chemicals, St. Louis, Mo.) and anti-mouse HRP diluted 1:15,000 (Jackson Immunoresearch labs, West Grove, Pa.) in PBST were added to each well and allowed to incubate at room temperature for another hour. The wells were then washed three times with 200 μl of PBST and 100 μl of luminol substrate (⅕ dilution) was added. The luminescence of each well was then measured using a […] to calculate the amount of E2-ubiquitin complex. This procedure was repeated using His-E2 Ubch5C instead of His-E2 Ubch10.
The table below illustrates the inhibitory properties of the pharmaceutical compostions of the invention comprising the compounds listed in the table using the assays described above. Inhibition was measured using IC50 values.

The record followed here is patent US20080039629A1, “Benzothniazole compositions and their use as ubiquition ligation inhibitors” (RIGEL PHARMACEUTICALS, INC., priority 2003, published 2008).

Consider `C=C(C)C(=O)Nc1ccc(C(=O)Nc2nc3ccc(OC)cc3s2)cc1` [Compound 15, 4-methacrylamido-N-(6-methoxybenzo[d]thiazol-2-yl)benzamide], for which the UBC10 entry was “++ (++ indicates inhibition at 50 μM or or less)”. For `COc1ccc2nc(NC(=O)c3ccc(N)cc3)sc2c1` [Compound 16, 4-amino-N-(6-methoxybenzo[d]thiazol-2-yl)benzamide] the value was “++ (++ indicates inhibition at 50 μM or or less)”. In the case of `COc1ccc2nc(NC(=O)c3ccc(NC(C)=O)cc3)sc2c1` [Compound 17, 4-acetamido-N-(6-methoxybenzo[d]thiazol-2-yl)benzamide] it was “++ (++ indicates inhibition at 50 μM or or less)”; in that of `COc1ccc2nc(NC(=O)c3ccc([N+](=O)[O-])cc3Cl)sc2c1` [Compound 18, 2-chloro-N-(6-methoxybenzo[d]thiazol-2-yl)-4-nitrobenzamide], “−− (−− indicates marginal or no inhibition detected with this assay)”. Consider `COc1ccc2nc(NC(=O)c3ccc(NC(=O)C4CCCCC4)cc3)sc2c1` [Compound 19, 4-(cyclohexanecarboxamido)-N-(6-methoxybenzo[d]thiazol-2-yl)benzamide], for which the UBC10 result is given as “++ (++ indicates inhibition at 50 μM or or less)”.

Consider `COc1ccc2nc(NC(=O)c3ccc([N+](=O)[O-])c(C)c3)sc2c1` [Compound 20, N-(6-methoxybenzo[d]thiazol-2-yl)-3-methyl-4-nitrobenzamide], for which the UBC10 entry is on record as “−− (−− indicates marginal or no inhibition detected with this assay)”. In the case of `COc1ccc2nc(NC(=O)c3ccc(C)cc3)sc2c1` [Compound 21, N-(6-methoxybenzo[d]thiazol-2-yl)-4-methylbenzamide] it was “++ (++ indicates inhibition at 50 μM or or less)”. Consider `COc1ccc2nc(NC(=O)c3ccc(C)c([N+](=O)[O-])c3)sc2c1` [Compound 23, N-(6-methoxybenzo[d]thiazol-2-yl)-4-methyl-3-nitrobenzamide], for which the UBC10 entry is on record as “−− (−− indicates marginal or no inhibition detected with this assay)”. Consider `COc1ccc2nc(NC(=O)c3ccc([N+](=O)[O-])cc3)sc2c1` [Compound 24, N-(6-methoxybenzo[d]thiazol-2-yl)-4-nitrobenzamide], for which the UBC10 entry is “++ (++ indicates inhibition at 50 μM or or less)”.

For the compound `COc1ccc2nc(NC(=O)c3ccc4ccccc4c3)sc2c1` [Compound 25, N-(6-methoxybenzo[d]thiazol-2-yl)-2-naphthamide], the UBC10 entry was “−− (−− indicates marginal or no inhibition detected with this assay)”. In the case of `COC(=O)c1ccc(C(=O)Nc2nc3ccc(OC)cc3s2)cc1` [Compound 26, methyl 4-((6-methoxybenzo[d]thiazol-2-yl)carbamoyl)benzoate] it was “++ (++ indicates inhibition at 50 μM or or less)”.

As for `COc1ccc2nc(NC(=O)c3ccc(OC(C)=O)cc3)sc2c1` [Compound 27, 4-((6-methoxybenzo[d]thiazol-2-yl)carbamoyl)phenyl acetate], the UBC10 result was “++ (++ indicates inhibition at 50 μM or or less)”. For `COc1ccc2nc(NC(=O)c3ccc(C(C)=O)cc3)sc2c1` [Compound 28, 4-acetyl-N-(6-methoxybenzo[d]thiazol-2-yl)benzamide] the value was “++ (++ indicates inhibition at 50 μM or or less)”; for `COc1ccc2nc(NC(=O)c3ccc4c(c3)OCCO4)sc2c1` [Compound 29, N-(6-methoxybenzo[d]thiazol-2-yl)-2,3-dihydrobenzo[b][1,4]dioxine-6-carboxamide], “++ (++ indicates inhibition at 50 μM or or less)”; for `COc1ccc2nc(NC(=O)c3ccc(Cl)cc3)sc2c1` [Compound 30, 4-chloro-N-(6-methoxybenzo[d]thiazol-2-yl)benzamide], “++ (++ indicates inhibition at 50 μM or or less)”. In the case of `COc1ccc2nc(NC(=O)c3ccc(C#N)cc3)sc2c1` [Compound 31, 4-cyano-N-(6-methoxybenzo[d]thiazol-2-yl)benzamide] it was “++ (++ indicates inhibition at 50 μM or or less)”; in that of `COc1ccc2nc(NC(=O)c3ccccc3)sc2c1` [Compound 32, N-(6-methoxybenzo[d]thiazol-2-yl)benzamide], “++ (++ indicates inhibition at 50 μM or or less)”. For `COc1ccc(-c2ccc(C(=O)Nc3nc4ccc(OC)cc4s3)cc2)cc1` [Compound 33, 4′-methoxy-N-(6-methoxy-1,3-benzothiazol-2-yl)biphenyl-4-carboxamide] the value was “++ (++ indicates inhibition at 50 μM or or less)”; for `COc1ccc2nc(NC(=O)c3ccc(S(=O)(=O)N4CCCC4)cc3)sc2c1` [Compound 34, N-(6-methoxybenzo[d]thiazol-2-yl)-4-(pyrrolidin-1-ylsulfonyl)benzamide], “++ (++ indicates inhibition at 50 μM or or less)”; for `COc1ccc2nc(NC(=O)c3ccc(Oc4ccccc4)cc3)sc2c1` [Compound 35, N-(6-methoxybenzo[d]thiazol-2-yl)-4-phenoxybenzamide], “−− (−− indicates marginal or no inhibition detected with this assay)”. In the case of `COc1ccc(C(=O)Nc2nc3ccc(OC)cc3s2)cc1` [Compound 36, 4-methoxy-N-(6-methoxybenzo[d]thiazol-2-yl)benzamide], the UBC10 entry was “++ (++ indicates inhibition at 50 μM or or less)”. For `COc1ccc2nc(NC(=O)C3CCCN3S(=O)(=O)c3ccc(C)cc3)sc2c1` (stereo not drawn) [Compound 37, N-(6-methoxybenzo[d]thiazol-2-yl)-1-tosylpyrrolidine-2-carboxamide] the value was “−− (−− indicates marginal or no inhibition detected with this assay)”.

Regarding `COc1ccc2nc(NC(=O)C3Cc4ccccc4N3)sc2c1` (stereo not drawn) [Compound 38, N-(6-methoxybenzo[d]thiazol-2-yl)indoline-2-carboxamide], the UBC10 entry is given as “++ (++ indicates inhibition at 50 μM or or less)”. In the case of `COc1ccc2nc(NC(=O)[C@H]3Cc4ccccc4N3)sc2c1` [Compound 39, (R)-N-(6-methoxybenzo[d]thiazol-2-yl)indoline-2-carboxamide] it was “++ (++ indicates inhibition at 50 μM or or less)”; in that of `COc1ccc2nc(NC(=O)Cc3cc4ccccc4n3C)sc2c1` [Compound 40, N-(6-methoxybenzo[d]thiazol-2-yl)-2-(1-methyl-1H-indol-2-yl)acetamide], “++ (++ indicates inhibition at 50 μM or or less)”. For `COc1ccc2nc(NC(C)=O)sc2c1` [Compound 41, N-(6-methoxybenzo[d]thiazol-2-yl)acetamide] the value was “++ (++ indicates inhibition at 50 μM or or less)”; for `COc1ccc2nc(NC(=O)C34CC5CC(CC(C5)C3)C4)sc2c1` [Compound 42, N-(6-methoxy-1,3-benzothiazol-2-yl)adamantane-1-carboxamide], “++ (++ indicates inhibition at 50 μM or or less)”.
